Measured values reported in article PMC7821381, “Multi-Targeted Anticancer Activity of Imidazolate Phosphane Gold(I) Compounds by Inhibition of DHFR and TrxR in Breast Cancer Cells” (Frontiers in Chemistry, 2021).

What was measured:
[1] = target: T1, dihydrofolate reductase (DHFR) (Homo sapiens, UniProt P00374); experiment: DHFR specific enzymatic activity in lysates of treated SKBR3 cells; type: cell-based; settings: 6 μM (maximum inhibition)
T1 construct: Cell lysates were collected using Cell Culture Lysis Reagent; endogenous in cells; host or cells: MDA-MB231 and SKBR3 (human breast cancer cells)
T1 sequence (P00374 1-187): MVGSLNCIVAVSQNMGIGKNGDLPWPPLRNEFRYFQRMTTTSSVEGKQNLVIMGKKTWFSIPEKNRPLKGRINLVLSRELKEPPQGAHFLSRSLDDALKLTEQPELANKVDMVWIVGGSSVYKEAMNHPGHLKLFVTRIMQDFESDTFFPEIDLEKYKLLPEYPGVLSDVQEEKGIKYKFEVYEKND
Method: SKBR3, MDA-MB-231 and A17 cells were plated onto 100 mm cell culture dishes (2 × 10^6 cells/ dish). The day after, cells were treated with vehicle alone (DMSO) as control or increasing concentrations of compound 5 and compound 6 in DMEM supplemented with 2% FBS (Invitrogen, Carlsbad, CA) for 4 h or 12 h. Representative pictures of cells treated with compound 5 or 6 at the indicated concentration for 4 or 12 h just before to take cell lysates for the enzymatic tests are reported as supplemental files. Cell lysates were collected using Cell Culture Lysis Reagent (Promega, Madison, WI) supplemented with BSA (1%) and protease inhibitors. DHFR activity was assessed by spectrophotometric assay as reported elsewhere (Wang et al., [2020]) in which the reaction rate was followed by recording the decreasing absorbance at 340 nm due to oxidation of NADPH to NADP^+, using a Shimadzu UV-2450 spectrophotometer. When necessary, because of low protein content in the lysates, the DHFR enzymatic activity was measured by a discontinuous direct HPLC assay using an Agilent 1100 system. HPLC-DAD (Agilent 1100) was used to detect and quantify the presence of NADP^+, as one of the products of DHFR catalyzed reaction, in cell lysates. Fifty microliter of the cell lysate were incubated at 37°C in a reaction mixture containing 760 μl of buffer (0.05 M Hepes pH 7.3), 20 μl of NADPH 4 mM, and 20 μl of dihydrofolate (H2F) 4 mM. The samples for HPLC analysis were prepared as follows: 50 μl aliquots of each mixture were stopped at different times (0, 5, 10, 20, 30, and 60 min) by adding 25 μl of HClO4 1.2 M; after 10 min on ice and centrifugation for 5 min at 12,000 g, 60 μl of each supernatant were neutralized by adding 17.5 μl of K2CO3 0.79 M, kept on ice and centrifuged again. Fifty microliter of the supernatant obtained were directly injected into the reversed phase column for separations of reagents and products of the enzyme catalyzed reaction. The column used is a Supelcosil LC RP 18 (4.6 × 250 mm) with pre-column SupelGuard. The HPLC settings are the same reported in Wang et al. ([2020]). The amounts of product (NADP^+) were determined from the peak areas of the HPLC-separated compounds with reference to appropriate standards. One enzyme unit is defined as the amount of enzyme which catalyzes the reduction of 1 μmol of dihydrofolate, per minute, at 37°C. Enzyme activities were normalized by the protein content, determined by the Bradford assay (Bradford, [1976]).

MDA-MB231 cells = experiment: MTT cell viability assay on MDA-MB231 cells; type: cell-based, human; settings: MDA-MB231, 48 h, ± S. D.
Description: Human MDA-MB-231 (ER–/PR–/HER2–) and SK-BR-3 (ER–/PR–/HER2+) cells were obtained from American Type Culture Collection (Rockville, MD) and cultured in Dulbecco's Modified Essential Medium (DMEM, Gibco, Life Technologies) supplemented with 10% fetal bovine serum (FBS, Gibco, Life Technologies) and 1% penicillin–streptomycin (Gibco, Life Technologies). A17 cells were established from a spontaneous lobular carcinoma that arose in an FVB/neuT mouse (Galiè et al., [2005]), and maintained in DMEM plus 20% FBS and 1% penicillin-streptomycin. Cells were cultured at 37°C under humidified atmosphere with 5% CO2.
Stock solutions were prepared for each gold(I) compound (50 mM) using dimethyl sulfoxide (DMSO) (Sigma-Aldrich) as solvent. The effects of gold(I) compounds on SKBR3, A17 and MDA-MB231 cells viability were evaluated by seeding, respectively, 10, ^*10^3, 2.5 ^*10^3, 7, ^*10^3 cells/well in 96 wells plates in complete medium (DMEM supplemented with FBS) and compared to those of cisplatin. The day after, fresh medium containing vehicle alone (DMSO, 1 % v/v final concentration) or increasing concentrations of each compound ranging from 0.1 to 100 μM was added. Cell viability was determined using a MTT [3-(4,5-dimethylthiazol-2-yl)-2,5-diphenyl-2H-tetrazolium bromide Sigma Aldrich, St. Louis, MO] assay, which is based on the conversion of MTT to formazan crystals by mitochondrial enzymes, after 24, 48, and 72 h. The formazan deposits were dissolved in DMSO and the absorbance of each well was measured at 540 nm in Multiskan Ascent 96/384 Plate Reader. Each drug concentration was evaluated with 8 replicates and each experiment was repeated three times. At the end of the experiments a dose–response curve was plotted, and the IC50 concentrations were determined. […] Quantitative data are presented as means ± SEM. […]
IC50 values were calculated for each of the cell lines tested, by fitting the concentration-effect curves data obtained in the three experiments with the sigmoid-Emax model using nonlinear regression, weighted by the reciprocal of the square of the predicted effect.

[2] = target: T2, bovine serum albumin (BSA) (Bos taurus, UniProt P02769); experiment: BSA tryptophan fluorescence quenching; type: binding; settings: Stern-Volmer constant, Tris-HCl pH 7.4, room temperature
T2 construct: purchased Sigma Aldrich
T2 sequence (P02769 25-607): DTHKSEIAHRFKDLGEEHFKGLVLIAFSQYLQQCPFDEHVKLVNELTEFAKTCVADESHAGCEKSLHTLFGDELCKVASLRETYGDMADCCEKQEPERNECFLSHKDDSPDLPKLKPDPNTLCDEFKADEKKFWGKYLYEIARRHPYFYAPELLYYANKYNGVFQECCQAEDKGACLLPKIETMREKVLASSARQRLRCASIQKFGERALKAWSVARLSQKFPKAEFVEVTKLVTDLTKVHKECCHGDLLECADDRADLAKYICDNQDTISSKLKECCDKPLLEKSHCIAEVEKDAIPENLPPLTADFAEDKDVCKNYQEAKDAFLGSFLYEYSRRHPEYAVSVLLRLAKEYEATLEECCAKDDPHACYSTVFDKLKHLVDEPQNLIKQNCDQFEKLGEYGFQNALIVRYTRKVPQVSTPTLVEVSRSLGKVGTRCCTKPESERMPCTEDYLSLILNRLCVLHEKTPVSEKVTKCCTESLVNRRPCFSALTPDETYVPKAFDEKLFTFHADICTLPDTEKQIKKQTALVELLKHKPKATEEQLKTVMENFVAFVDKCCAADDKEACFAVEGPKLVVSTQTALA
Method: The protein-binding studies were performed by tryptophan fluorescence quenching experiments using bovine serum albumin (BSA) from Sigma Aldrich prepared in 10 mM Tris-HCl buffer pH 7.4, 10 mM NaCl. The concentration was determined by measuring the absorbance at 280 nm. Assuming a molecular weight of 66,400 and a molar extinction coefficient at 280 nm of 43,824 M^−1 cm^−1. Fluorescence measurements were recorded on a Hitachi 4,500 spectrofluorometer by keeping the concentration of BSA constant (15 × 10^−6 M) while increasing compounds 5 or 6 concentrations (5 mM in DMSO) were added to protein solution at room temperatures. Protein fluorescence intensity was recorded after each successive addition of gold compound solution and equilibration (ca. 5 min). Fluorescence spectra were recorded from 300 to 450 nm at an excitation wavelength of 285 nm. The value of Stern Volmer constants of the different metal complexes to BSA was evaluated following Equation 3 and fluorescent values were corrected by Equation 2.
Protein fluorescence intensity was recorded after each successive addition of complex solution and equilibration (ca. 5 min). Fluorescence spectra were recorded from 300 to 450 nm at an excitation wavelength of 285 nm. The value of Stern Volmer constants of the different metal complexes to BSA were evaluated following the equation 3 and fluorescent values were corrected by equation 2.

[3] = SKBR3, 4 h treatment, control 0.72 ± 0.05
[4] = SKBR3, 12 h treatment, control 0.67 ± 0.10

4,5-dicyano-imidazolate-1yl-gold(I)-(triphenylphosphane) [Compound 5]
Specific enzymatic activity of DHFR [1, 3]: 0.54 ± 0.04 mU/mg | Specific enzymatic activity of DHFR [1, 4]: 0.29 ± 0.05 mU/mg | IC50 (MDA-MB231 cells): 7.03 ± 0.76 µM | BSA Ksv [2]: 2.46 ± 0.82 10^4 M^−1

4,5-dichloro-imidazolate-1yl-gold(I)-(triphenylphosphane) [Compound 6]
Specific enzymatic activity of DHFR [1, 3]: 0.64 ± 0.06 mU/mg | Specific enzymatic activity of DHFR [1, 4]: 0.34 ± 0.01 mU/mg | IC50 (MDA-MB231 cells): 3.46 ± 0.29 µM | BSA Ksv [2]: 2.04 ± 0.71 10^4 M^−1
